# Laboratory results from the supplement of paper PMC11208160.
# Assay: recombinant UMI read abundance after kanamycin selection (control-corrected) (log10(CPM+1)); higher = more efficient recombination; extreme values may be limits of the assay; sequences stand for … in AGTGCAGAGAAAATCGGCCAGTTTTCTCTGCCTGCAGTCCGCATGCCGTGGGACCCCTTGGGTTCTAACCTGTTGCCTAGATTTATGCAGCGGACTGCCTTTCTCCCAAAGTGATAAACCGG…AGGTTGGTTTCACT; site = the 11-nt donor
# Method in brief: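 Each donor and donor-binding-loop pair was tracked by a 12-nt UMI on a plasmid carrying a promoterless kanamycin gene. With a second plasmid supplying a fixed target and T7-inducible IS621 bridge recombinase, the pool was plated in Escherichia coli on IPTG (0.07 mM) plus kanamycin or unselected. Sequencing of recombinant UMIs across the donor–target junction gave counts expressed as log10(CPM+1) after replicate averaging and control-derived scaling.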
# 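Further: IS621 bridge recombinase in Escherichia coli cells against a fixed T5 target plasmid.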
sequence,measurement,value
CGATCAGCATGGACCGGTTTTCCCGGTAATCCGTATTTGCT (site CGATCATCTAG),recombinant UMI read abundance (log10),0
CGATCATCATGGACCGGTTTTCCCGGTAATCCGTATTTGGT (site CGATCATCTAA),recombinant UMI read abundance (log10),0.00543
CGATCATCATGGACCGGTTTTCCCGGTAATCCGTATTTGGT (site CGATCATCTAC),recombinant UMI read abundance (log10),1.58
CGATCATCATGGACCGGTTTTCCCGGTAATCCGTATTTGGT (site CGATCATCTAG),recombinant UMI read abundance (log10),0.495
CGATCATCATGGACCGGTTTTCCCGGTAATCCGTATTTGGT (site CGATCATCTAT),recombinant UMI read abundance (log10),1.08
CGATCGACATGGACCGGTTTTCCCGGTAATCCGTATTTGCT (site CGATCGACTAA),recombinant UMI read abundance (log10),0.3
CGATCGACATGGACCGGTTTTCCCGGTAATCCGTATTTGCT (site CGATCGACTAC),recombinant UMI read abundance (log10),0.00923
CGATCGACATGGACCGGTTTTCCCGGTAATCCGTATTTGCT (site CGATCGACTAG),recombinant UMI read abundance (log10),2.63
CGATCGACATGGACCGGTTTTCCCGGTAATCCGTATTTGCT (site CGATCGACTAT),recombinant UMI read abundance (log10),0.0395
CGATCGACATGGACCGGTTTTCCCGGTAATCCGTATTTGTC (site CGATCGACTAA),recombinant UMI read abundance (log10),0.00466
CGATCGACATGGACCGGTTTTCCCGGTAATCCGTATTTGTC (site CGATCGACTCA),recombinant UMI read abundance (log10),0
CGATCGACATGGACCGGTTTTCCCGGTAATCCGTATTTGTC (site CGATCGACTGA),recombinant UMI read abundance (log10),1.08
CGATCGACATGGACCGGTTTTCCCGGTAATCCGTATTTGTC (site CGATCGACTTA),recombinant UMI read abundance (log10),0
CGATCGGCATGGACCGGTTTTCCCGGTAATCCGTATTTGAA (site CGATCGGCTTT),recombinant UMI read abundance (log10),1.25
CGATCGTCATGGACCGGTTTTCCCGGTAATCCGTATTTGTT (site CGATCGACTAA),recombinant UMI read abundance (log10),0.00634
CGATCGTCATGGACCGGTTTTCCCGGTAATCCGTATTTGTT (site CGATCGCCTAA),recombinant UMI read abundance (log10),0.0131
CGATCGTCATGGACCGGTTTTCCCGGTAATCCGTATTTGTT (site CGATCGGCTAA),recombinant UMI read abundance (log10),0.0205
CGATCGTCATGGACCGGTTTTCCCGGTAATCCGTATTTGTT (site CGATCGTCTAA),recombinant UMI read abundance (log10),1.25
CGATCTCCATGGACCGGTTTTCCCGGTAATCCGTATTTGCT (site CGATCTCCTAG),recombinant UMI read abundance (log10),0
CGATCTTCATGGACCGGTTTTCCCGGTAATCCGTATTTGTT (site CGATCATCTAG),recombinant UMI read abundance (log10),0
CGATCTTCATGGACCGGTTTTCCCGGTAATCCGTATTTGTT (site CGATCTTCTAA),recombinant UMI read abundance (log10),0.751
CGATGATCATGGACCGGTTTTCCCGGTAATCCGTATTTGCT (site CGATAATCTAG),recombinant UMI read abundance (log10),2.33
CGATGATCATGGACCGGTTTTCCCGGTAATCCGTATTTGCT (site CGATCATCTAG),recombinant UMI read abundance (log10),0.00821
CGATGATCATGGACCGGTTTTCCCGGTAATCCGTATTTGCT (site CGATGATCTAG),recombinant UMI read abundance (log10),2.46
CGATGATCATGGACCGGTTTTCCCGGTAATCCGTATTTGCT (site CGATTATCTAG),recombinant UMI read abundance (log10),0.958
CGATGGACATGGACCGGTTTTCCCGGTAATCCGTATTTGTT (site CGATAGACTAA),recombinant UMI read abundance (log10),1.25
CGATGGACATGGACCGGTTTTCCCGGTAATCCGTATTTGTT (site CGATCGACTAA),recombinant UMI read abundance (log10),0.00844
CGATGGACATGGACCGGTTTTCCCGGTAATCCGTATTTGTT (site CGATGGACTAA),recombinant UMI read abundance (log10),1.97
CGATGGACATGGACCGGTTTTCCCGGTAATCCGTATTTGTT (site CGATTGACTAA),recombinant UMI read abundance (log10),0.00606
CGATGGTCATGGACCGGTTTTCCCGGTAATCCGTATTTGCT (site CGATCATCTAG),recombinant UMI read abundance (log10),0
CGATGGTCATGGACCGGTTTTCCCGGTAATCCGTATTTGCT (site CGATGGTCTAG),recombinant UMI read abundance (log10),2.8
CGATTGGCATGGACCGGTTTTCCCGGTAATCCGTATTTGCA (site CGATTGGCTTG),recombinant UMI read abundance (log10),2.02
CGCAATCCATGGACCGGTTTTCCCGGTAATCCGTATTTGTG (site CGCAATCCTCA),recombinant UMI read abundance (log10),0.631
CGCAATCCATGGACCGGTTTTCCCGGTAATCCGTATTTGTG (site CGGAATCCTAA),recombinant UMI read abundance (log10),0
CGCAATGCATGGACCGGTTTTCCCGGTAATCCGTATTTGTT (site CGCAATGCTAA),recombinant UMI read abundance (log10),2.14
CGCAATGCATGGACCGGTTTTCCCGGTAATCCGTATTTGTT (site CGGAATCCTAA),recombinant UMI read abundance (log10),0
CGCAGCACATGGACCGGTTTTCCCGGTAATCCGTATTTGAC (site CGCAGCACTGT),recombinant UMI read abundance (log10),2.95
CGCAGGCCATGGACCGGTTTTCCCGGTAATCCGTATTTGGG (site CGCAGGCCTCC),recombinant UMI read abundance (log10),0
CGCAGTACATGGACCGGTTTTCCCGGTAATCCGTATTTGCG (site CGCAGTACTCG),recombinant UMI read abundance (log10),0.962
CGCATACCATGGACCGGTTTTCCCGGTAATCCGTATTTGAC (site CGCATACCTGT),recombinant UMI read abundance (log10),0
CGCATAGCATGGACCGGTTTTCCCGGTAATCCGTATTTGTA (site CGCATAGCTTA),recombinant UMI read abundance (log10),2.51
CGCATTACATGGACCGGTTTTCCCGGTAATCCGTATTTGGC (site CGCATTACTGC),recombinant UMI read abundance (log10),1.28
CGCCCGGCATGGACCGGTTTTCCCGGTAATCCGTATTTGGT (site CGCCCGGCTAC),recombinant UMI read abundance (log10),1.31
CGCCCTCCATGGACCGGTTTTCCCGGTAATCCGTATTTGTT (site CGCCCTCCTAA),recombinant UMI read abundance (log10),1.24
CGCCGAACATGGACCGGTTTTCCCGGTAATCCGTATTTGCT (site CGCCGAACTAG),recombinant UMI read abundance (log10),2.15
CGCCGAACATGGACCGGTTTTCCCGGTAATCCGTATTTGCT (site CGCCGCACTAG),recombinant UMI read abundance (log10),0.0174
CGCCGAACATGGACCGGTTTTCCCGGTAATCCGTATTTGCT (site CGCCGGACTAG),recombinant UMI read abundance (log10),0.95
CGCCGAACATGGACCGGTTTTCCCGGTAATCCGTATTTGCT (site CGCCGTACTAG),recombinant UMI read abundance (log10),0.00823
CGCCGGGCATGGACCGGTTTTCCCGGTAATCCGTATTTGAC (site CGCCGGGCTGT),recombinant UMI read abundance (log10),1.46
CGCCGTACATGGACCGGTTTTCCCGGTAATCCGTATTTGAT (site CGCCGTACTAA),recombinant UMI read abundance (log10),0.00486
CGCCGTACATGGACCGGTTTTCCCGGTAATCCGTATTTGAT (site CGCCGTACTAC),recombinant UMI read abundance (log10),0.0168
CGCCGTACATGGACCGGTTTTCCCGGTAATCCGTATTTGAT (site CGCCGTACTAG),recombinant UMI read abundance (log10),0
CGCCGTACATGGACCGGTTTTCCCGGTAATCCGTATTTGAT (site CGCCGTACTAT),recombinant UMI read abundance (log10),1.37
CGCCGTACATGGACCGGTTTTCCCGGTAATCCGTATTTGCC (site CGCCGTACTAG),recombinant UMI read abundance (log10),0.256
CGCCGTACATGGACCGGTTTTCCCGGTAATCCGTATTTGCC (site CGCCGTACTCG),recombinant UMI read abundance (log10),0.114
CGCCGTACATGGACCGGTTTTCCCGGTAATCCGTATTTGCC (site CGCCGTACTGG),recombinant UMI read abundance (log10),1.55
CGCCGTACATGGACCGGTTTTCCCGGTAATCCGTATTTGCC (site CGCCGTACTTG),recombinant UMI read abundance (log10),0.384
CGCCGTCCATGGACCGGTTTTCCCGGTAATCCGTATTTGCT (site CGCCGTACTAG),recombinant UMI read abundance (log10),0.0123
CGCCGTCCATGGACCGGTTTTCCCGGTAATCCGTATTTGCT (site CGCCGTCCTAG),recombinant UMI read abundance (log10),0.666
CGCCGTCCATGGACCGGTTTTCCCGGTAATCCGTATTTGCT (site CGCCGTGCTAG),recombinant UMI read abundance (log10),0
CGCCGTCCATGGACCGGTTTTCCCGGTAATCCGTATTTGCT (site CGCCGTTCTAG),recombinant UMI read abundance (log10),0.012
CGCCTAGCATGGACCGGTTTTCCCGGTAATCCGTATTTGTC (site TTGAATACTAG),recombinant UMI read abundance (log10),0
CGCCTATCATGGACCGGTTTTCCCGGTAATCCGTATTTGGC (site CGCCTATCTGC),recombinant UMI read abundance (log10),1.93
CGCCTTACATGGACCGGTTTTCCCGGTAATCCGTATTTGCT (site CGCCATACTAG),recombinant UMI read abundance (log10),0.00361
CGCCTTACATGGACCGGTTTTCCCGGTAATCCGTATTTGCT (site CGCCCTACTAG),recombinant UMI read abundance (log10),0.675
CGCCTTACATGGACCGGTTTTCCCGGTAATCCGTATTTGCT (site CGCCGTACTAG),recombinant UMI read abundance (log10),0
CGCCTTACATGGACCGGTTTTCCCGGTAATCCGTATTTGCT (site CGCCTTACTAG),recombinant UMI read abundance (log10),1.57
CGCCTTTCATGGACCGGTTTTCCCGGTAATCCGTATTTGAC (site AGCCTTTCTGT),recombinant UMI read abundance (log10),0
CGCCTTTCATGGACCGGTTTTCCCGGTAATCCGTATTTGAC (site CGCCTTTCTGT),recombinant UMI read abundance (log10),0
CGCCTTTCATGGACCGGTTTTCCCGGTAATCCGTATTTGAC (site GGCCTTTCTGT),recombinant UMI read abundance (log10),0
CGCCTTTCATGGACCGGTTTTCCCGGTAATCCGTATTTGAC (site TGCCTTTCTGT),recombinant UMI read abundance (log10),0
CGCGAGCCATGGACCGGTTTTCCCGGTAATCCGTATTTGGA (site CGCGAGCCTTC),recombinant UMI read abundance (log10),0.181
CGCGCTCCATGGACCGGTTTTCCCGGTAATCCGTATTTGTC (site CGCGCTCCTGA),recombinant UMI read abundance (log10),1.94
CGCGGACCATGGACCGGTTTTCCCGGTAATCCGTATTTGGG (site CGAGGACCTCC),recombinant UMI read abundance (log10),0.0232
CGCGGACCATGGACCGGTTTTCCCGGTAATCCGTATTTGGG (site CGCGGACCTCC),recombinant UMI read abundance (log10),0
